Results taken from patent US10463664B2, “Inhibitors of HSV nucleotidyl transferases and uses therefor” (Saint Louis University, priority 2013, dated 2019).

How the values were obtained:
Vero cells [1] = assay: CytoTox-Glo cellular lysis assay in Vero cells; type: cell-based; settings: 24 h; read-out: Vero cell toxicity CTG CC50
Description: Quantitative toxicity measurements were conducted for all compounds that suppressed HSV replication by approximately 2 login or more at 5 μM plus a number of compounds with lesser inhibitory activity for comparison. Toxicity was assessed by measuring release of intracellular proteases into the culture medium due to cellular lysis. […] Consistent with the subjective assessments of toxicity, all compounds selected for quantitative toxicity assessment had CC50 values ≥50 μM by both the MTT and cellular lysis assays (Table 1).

HSV-1 [2] = assay: Anti-HSV-1 replication assay in Vero cells, titer by plaque assay; type: cell-based, herpes simplex virus 1; settings: for Anti-HSV-1 Log10 suppression 5 μM / Anti-HSV-1 Log10 suppression 50 μM: moi 0.1, 24 h, relative to DMSO; for Inhibition of HSV-1 replication (in words): primary screening
Description: (§1) Anti-HSV-1 and -HSV-2 Replication Assay. Compounds to be screened were diluted in PBS supplemented to contain 2% newborn calf serum and 1% glutamine, and added in 100 μL, volume to confluent cell monolayers in 24-well cluster plates. Immediately thereafter HSV-1 and HSV-2, diluted in the supplemented PBS medium, were added to the wells in 50 μl volume such that the final concentration of compound was 50 μM and 5 μM and the multiplicity of infection was 0.1. The plates were incubated at 37° C. for 1 hour and then virus-containing inoculum was removed and the wells were washed once in PBS. Compounds, diluted to 50 μM and 5 μM in DMEM supplemented to contain 2% newborn calf serum and 1% each penicillin/streptomycin, were added at 0.5 mL/well. Plates were incubated at 37° C. an additional 23 hr, and then the plates were visually inspected through a phase contrast microscope for cytopathic effect, and for toxic effect. […] The entire contents of each well were collected by scraping. Samples were frozen at −80° C., and then subsequently thawed, sonicated, and infectious virus titer was determined by standard plaque assay on Vero cell monolayers. Because the compounds were dissolved at 10 mM in 100% DMSO, equivalent dilutions of DMSO were added to additional wells as a control for effects of the diluent. Each experiment was repeated once. EC50 values were determined as above except that serial dilutions of the compound to be tested were prepared starting at 50 μM. The inhibitory values were calculated by non-linear curve-fitting in GraphPad Prism.
(§2) Monolayers were microscopically inspected 24 hours post-infection and wells in which more cells were visually healthier than the DMSO-treated controls were collected. Viral titers in the culture lysates were then determined by standard plaque assay on Vero cells. Inhibition of viral replication was categorized as <1 log10 relative to the DMSO-treated control, 1 to 3 log10 suppression, or ≥3 log10 suppression. […] Additionally, four polyoxygenated heterocycle compounds were tested (#128, 138, 139, 140).

Vero cells [3] = assay: Qualitative (visual) cytotoxicity assessment in primary screening; type: cell-based; parameters: key to Vero cell toxicity Qualitative: T: visual evidence of toxicity at 50 μM; settings: visual, 50 μM
Description: Compound Cytotoxicity. Compound cytotoxicity was measured both subjectively and quantitatively. Subjective assessments were done by visually inspecting the infected cells at the end of the 24 hours infection window through a phase-contrast microscope.

HBV RNaseH = target: T1, HBV RNaseH (Hepatitis B virus genotype A2 subtype adw2, UniProt P03159); assay: Biochemical inhibition of HBV RNaseH (oligonucleotide-directed RNA cleavage assay); settings: compounds at 60, 20 or 10 μM
T1 construct: One of the inventors recently produced active recombinant HBV RNase H; hexahistidine; made in house; host or cells: E. coli
T1 sequence (P03159 693-845): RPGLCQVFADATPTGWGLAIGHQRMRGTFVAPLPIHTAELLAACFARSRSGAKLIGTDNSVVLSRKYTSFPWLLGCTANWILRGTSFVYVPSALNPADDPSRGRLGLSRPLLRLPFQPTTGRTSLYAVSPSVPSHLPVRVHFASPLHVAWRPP
Description: (§3) Biochemical inhibition of HBV RNaseH and human RNaseH1 activity. […] RNaseH activity was measured using an oligonucleotide-directed RNA cleavage assay in which a DNA oligonucleotide is annealed to an internally ^32P-labeled RNA, the RNA:DNA heteroduplex is incubated with the enzyme to permit cleavage, and then the RNA cleavage products are resolved by electrophoresis and detected by autoradiography. The compounds were included in the reaction mixes at 60, 20, or 10 μM and the amount of the RNA cleavage products in the compound-containing reactions was compared to reactions in which an equivalent concentration of DMSO was added as a vehicle control. The data were quantified using ImageJ.

HSV-2 [4] = assay: Anti-HSV-2 replication assay in Vero cells, titer by plaque assay; type: cell-based, herpes simplex virus 2; settings: for Anti-HSV-2 Log10 suppression 5 μM / Anti-HSV-2 Log10 suppression 50 μM: moi 0.1, 24 h, relative to DMSO; for Inhibition of HSV-2 replication (in words): primary screening
Description: as §1, §2

Vero cells [5] = assay: MTT mitochondrial toxicity assay in Vero cells; type: cell-based; settings: 24 h; read-out: Vero cell toxicity MTT CC50
human RNaseH1 = target: T2, human RNaseH1 (Homo sapiens, UniProt O60930); assay: Biochemical inhibition of human RNaseH1 (oligonucleotide-directed RNA cleavage assay); settings: compounds at 60, 20 or 10 μM
T2 construct: hexahistidine; made in house; host or cells: E. coli
T2 sequence (O60930 1-286): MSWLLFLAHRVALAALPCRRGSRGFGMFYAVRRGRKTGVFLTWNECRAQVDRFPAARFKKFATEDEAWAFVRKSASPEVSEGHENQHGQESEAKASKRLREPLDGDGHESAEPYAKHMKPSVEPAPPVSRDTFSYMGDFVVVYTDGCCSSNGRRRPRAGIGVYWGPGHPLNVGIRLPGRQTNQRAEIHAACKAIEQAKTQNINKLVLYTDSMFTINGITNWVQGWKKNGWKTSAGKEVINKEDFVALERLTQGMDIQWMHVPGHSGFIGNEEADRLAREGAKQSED
Description: as §3

HSV-1 [6] = assay: HSV-1 replication inhibition in primary human foreskin fibroblasts; type: cell-based, herpes simplex virus 1; parameters: key to Replication inhibition HSV-1 50 μM (not quantified): NQ: Not quantified due to visible toxicity; settings: HFF cells
Description: as §1
(§4) Inhibition of viral replication was next assessed in human foreskin fibroblasts (HFF) to determine whether NTS inhibitors could block HSV-1 and HSV-2 replication in a physiologically relevant, primary human cell type. […] Viral yields 24 hours post-infection were measured by plaque assay.

HSV-2 [7] = assay: HSV-2 replication inhibition in primary human foreskin fibroblasts; type: cell-based, herpes simplex virus 2; parameters: key to Replication inhibition HSV-2 50 μM (not quantified): NQ: Not quantified due to visible toxicity; settings: HFF cells
Description: as §1, §4

[8] = tested on: primary human foreskin fibroblasts; assay: in vitro
Description: (§5) Toxicity Assays. Qualitative assessments of cytotoxicity were done visually by inspecting the cells in the primary screening assays. For the quantitative assays, cells were plated in 96-well plates at 1.0×10^4 per well. The next day the compounds were added at 0.78 to 100 μM in a final concentration of 1% (v/v) DMSO, and the cells were incubated for 24 hours under conditions identical to those employed for the viral replication inhibition assays. Mitochondrial toxicity was measured by incubating the cells with 0.25 mg/mL thiazolyl blue tetrazolium bromide (MTT, SigmaAldrich Chemical Co.), the cultures were incubated for 60 min, metabolites were solubilized in acidic isopropanol, and absorbance was read at 570 nm. Cellular lysis was measured by detecting release of intracellular proteases with the CytoTox-Glo assay (Promega) according to the manufacturer's instructions. Percent viability was determined for each compound concentration from the maximal absorbance or luminosity data, and then CC50 values were calculated by non-linear curve fitting using GraphPad Prism.
as §4

in vitro = settings: human
Description: as §5, §4

[9] = relative to DMSO-treated control
[10] = 50 μM, relative to DMSO-treated control

Row | Structure (SMILES) | CC50 (Vero cells [1]) [µM] | Anti-HSV-1 Log10 suppression 5 μM (HSV-1 [2]; 5 μM) [log10] | Anti-HSV-1 Log10 suppression 50 μM (HSV-1 [2]; 50 μM) [log10] | Vero cell toxicity Qualitative (Vero cells [3]) | Anti-HBV RNaseH (HBV RNaseH) | Anti-HSV-2 Log10 suppression 5 μM (HSV-2 [4]; 5 μM) [log10] | Anti-HSV-2 Log10 suppression 50 μM (HSV-2 [4]) [log10] | CC50 (Vero cells [5]) [µM] | Anti-Human RNaseH1 (human RNaseH1) | Anti-HSV-2 Log10 suppression 50 μM (screening symbol) (HSV-2 [4]; visual inspection) | Replication inhibition HSV-1 5 μM (HSV-1 [6]; [9]) [log10] | Replication inhibition HSV-2 5 μM (HSV-2 [7]; [9]) [log10] | further results
1 | O=C1Cc2ccccc2C(=O)N1O [Compound 1] | > 100 | 0.28 | 2.66 | T? | +++ (inhibition at 10 μM) | −0.11 | 3.12 | > 100 |  |  |  |  | 
2 | C[C@H](Cc1ccc(O)c(O)c1)[C@@H](C)Cc1ccc(O)c(O)c1 [Compound 2] | > 100 | −0.19 | 3.21 |  | − (no inhibition at 60 μM) | −0.15 | 4.38 | > 100 | − (no inhibition at 60 μM) |  |  |  | 
3 | COc1cc2c(cc1Cc1cccc(Cl)c1F)c(=O)c(C(=O)O)cn2[C@H](CO)C(C)C [Compound 10, Elvitegravir, reference compound] |  |  |  | T | − (no inhibition at 60 μM) |  |  |  | − (no inhibition at 60 μM) | − |  |  | Anti-HSV-1 Log10 suppression 5 μM (screening symbol) (HSV-1 [2]; 5 μM, visual inspection): −; Anti-HSV-1 Log10 suppression 50 μM (screening symbol) (HSV-1 [2]; 50 μM, visual inspection): −; Anti-HSV-2 Log10 suppression 5 μM (screening symbol) (HSV-2 [4]; 5 μM, visual inspection): −
4 | O=c1cc2oc3cc(O)c(O)cc3c(-c3ccccc3)c-2cc1O [Compound 31] | > 100 | 0.21 | 3.01 |  | +++ (inhibition at 10 μM) | 0.22 | 3.56 | > 100 | +++ (inhibition at 10 μM) |  |  |  | 
5 | O=Nc1ccc(O)c(=O)cc1 [Compound 50, 5-nitrosotropolone] |  |  |  | T | − (no inhibition at 60 μM) |  |  |  | − (no inhibition at 60 μM) | + | 2.92 | 2.88 | Replication inhibition HSV-1 50 μM (not quantified) (HSV-1 [6]; 50 μM): NQ^4; Replication inhibition HSV-2 50 μM (not quantified) (HSV-2 [7]; 50 μM): NQ; CC50 [8]: 40.4 µM; Toxicity in HFF cells (in words) [8]: some toxicity
6 | O=c1cccccc1O [Compound 53, Tropolone] |  | 0.25 | 1.90 |  | − (no inhibition at 60 μM) | 0.45 | 1.45 |  | − (no inhibition at 60 μM) |  | −0.03 | 0.29 | Replication inhibition HSV-1 50 μM (HSV-1 [6]; [10]): 2.13 log10; Replication inhibition HSV-2 50 μM (HSV-2 [7]; [10]): 1.22 log10; Inhibition of HSV-1 replication (in words) (HSV-1 [2]): negligible inhibitors; Inhibition of HSV-2 replication (in words) (HSV-2 [4]): negligible inhibitors; CC50 at 24 h (in vitro): > 100 µM
7 | Cc1ccc(S(=O)(=O)Oc2cccccc2=O)cc1 [Compound 61] |  | 0.15 |  | T | − (no inhibition at 60 μM) | 0.23 |  |  | ++ (inhibition at 20 μM) | − | −0.17 | −0.05 | Replication inhibition HSV-1 50 μM (not quantified) (HSV-1 [6]; 50 μM): NQ; Replication inhibition HSV-2 50 μM (not quantified) (HSV-2 [7]; 50 μM): NQ; Inhibition of HSV-1 replication (in words) (HSV-1 [2]): negligible inhibitors; Inhibition of HSV-2 replication (in words) (HSV-2 [4]): negligible inhibitors; CC50 [8]: 27.8 µM; Toxicity in HFF cells (in words) [8]: some toxicity
